Measurements reported in patent US20120004160A1, “METHODS FOR IDENTIFYING AND COMPOUNDS USEFUL FOR THE DIAGNOSIS AND TREATMENT OF DISEASES INVOLVING INFLAMMATION” (Glaxo Group Ltd., priority 2009, published 2012).

Test system: human primary macrophages
Experiment: IL-10 release measured in the same supernatant (additional cytokine measurements)
Format: cell-based
Conditions: effect of Ad-shRNA on IL-10 release; supernatant of on-target assay, macrophages triggered with IgG-coated beads; symbols not defined
Description: 20 μL of supernatant was used in a TNFα readout assay (Meso Scale Discovery, (MSD), Gaithersburg, Md.). The measurements were performed according to manufacturer's instructions. 20 μL of sample solution were transferred by Tecan384 head on a Tecan freedom station to wells of a 384 well TNFα MSD readout plate(Meso Scale Discovery Catalog #K211BHB-6). A calibrator curve using calibrator from MSD was created using a multichannel pipette. The calibrator curve typically started at 10 ng/mL followed by 6 steps of a 3-fold dilution with a final volume of 10 μL. Plates were sealed and incubated for 2 hours on a shaking platform (set at ˜100 rounds per minute) at room temperature. Detection antibody (1.0 μg/mL) was added to the wells (10 μL for the calibrator and 20 μL for the samples) using a repetitive multichannel. Plates were sealed and incubated overnight at room temperature on a shaking platform (set at ˜100 rounds per minute). The plates were washed 3 times with PBS+0.05% Tween-20 using a Tecan washer (TECAN type, PW384). 35 μl of 2× Read Buffer T was added to each well using a multidrop. After addition of Read Buffer, the plates were read on an MSD SI6000 reader.
For the measurements of additional cytokines, such as IL-10, the supernatants were transferred using the TECAN Freedom with a TEMO-384 head. The cytokines were measured using 384 well plates purchased at Meso Scale Discovery and the methodology used is the same as described in Example 5. Hits were prioritized based on effects on IL-10 release.
In an shRNA screen there is the possibility that the observed effects are due to off-target effects: the shRNA knock down construct has an effect on expression of a different mRNA than the intended mRNA. To exclude possible off-target effects by the knockdown constructs the following “on-target” analysis was followed. For each target, the original Ad-shRNA plus 5 extra Ad-shRNA constructs against the same target were tested in the primary screening assay. If at least two independent shRNA sequences (including original confirmed drug targetAd-shRNA) give the same effect in one donor, the probability this is due to off target shRNA effects is negligible and the effect is declared “on-target”. For the on-target assay, the methods similar to the screen and rescreen were used as described in Examples 5 and 6. The TNFα release assay was performed as per Rescreen (see Example 6) except that the negative control viruses (Luc_v13) were repropagated alongside the on-target viruses. In total, 40 targets were taken along in the on-target assay, and for 15 targets multiple shRNA came up as a hit. In addition, IL-10 release was measured in the same supernatant as described in Examples 5 and 7. Table 3 indicates the effects of the shRNAs on the IL-10 release.

Substance | IL-10 sparing
AGACATGGATGGGAAAGAC: Ad-shRNA knock-down construct, KD target sequence against CBR3 (the letters are possibly those of the target site) | ✓
ATGACCCTACAGGTTTACC: Ad-shRNA knock-down construct, KD target sequence against NEK10 | ✓
CATACTGGAGCCTGTAACC: Ad-shRNA knock-down construct, KD target sequence against TNFRSF10C | ✓
CCAATGGTTACATGGCTCC: Ad-shRNA knock-down construct, KD target sequence against GRK7 | ✓
CTCAGGAAGGTCTTTCCAC: Ad-shRNA knock-down construct, KD target sequence against SNF1LK | ✓
CTTGTGCGATGCTTTGAAC: Ad-shRNA knock-down construct, KD target sequence against ATIC | ✓
CTTGTGTGCCAGTGGATGC: Ad-shRNA knock-down construct, KD target sequence against BRS3 | ✓
GGTGTCTTACTGCTGACTC: Ad-shRNA knock-down construct, target sequence against TNFRSF11A (Table 3 only, no SEQ ID NO) (the letters are possibly those of the target site) | ✓
GTTCTGCTGTGCATCTGCC: Ad-shRNA knock-down construct, KD target sequence against OPRL1 | ✓
TATGCTGTAGGCTGCCTGC: Ad-shRNA knock-down construct, KD target sequence against PIK3CB (listed as Homo sapiens) | ✓
TGTCTACACCACTGCTGCC: Ad-shRNA knock-down construct, KD target sequence against RYR1 (the letters are possibly those of the target site; listed as Homo sapiens) | ✓
